Experimental data published in US20100240611A1, “METHODS FOR PREPARING DPP-IV INHIBITOR COMPOUNDS” (priority 2009, published 2010).

Target: T1, DPP-IV (Homo sapiens, UniProt P27487)
T1 construct: in an in vivo protocol study in humans; from tissue; host or cells: human subjects (in vivo)
Assay: in vivo protocol study in humans: selectivity of DPP-IV inhibition over other dipeptidyl peptidases
Settings: other dipeptidyl peptidases named in the block: DPP-VII, DPP-VIII, DPP-IX, FAP

T1 sequence (P27487 whole entry): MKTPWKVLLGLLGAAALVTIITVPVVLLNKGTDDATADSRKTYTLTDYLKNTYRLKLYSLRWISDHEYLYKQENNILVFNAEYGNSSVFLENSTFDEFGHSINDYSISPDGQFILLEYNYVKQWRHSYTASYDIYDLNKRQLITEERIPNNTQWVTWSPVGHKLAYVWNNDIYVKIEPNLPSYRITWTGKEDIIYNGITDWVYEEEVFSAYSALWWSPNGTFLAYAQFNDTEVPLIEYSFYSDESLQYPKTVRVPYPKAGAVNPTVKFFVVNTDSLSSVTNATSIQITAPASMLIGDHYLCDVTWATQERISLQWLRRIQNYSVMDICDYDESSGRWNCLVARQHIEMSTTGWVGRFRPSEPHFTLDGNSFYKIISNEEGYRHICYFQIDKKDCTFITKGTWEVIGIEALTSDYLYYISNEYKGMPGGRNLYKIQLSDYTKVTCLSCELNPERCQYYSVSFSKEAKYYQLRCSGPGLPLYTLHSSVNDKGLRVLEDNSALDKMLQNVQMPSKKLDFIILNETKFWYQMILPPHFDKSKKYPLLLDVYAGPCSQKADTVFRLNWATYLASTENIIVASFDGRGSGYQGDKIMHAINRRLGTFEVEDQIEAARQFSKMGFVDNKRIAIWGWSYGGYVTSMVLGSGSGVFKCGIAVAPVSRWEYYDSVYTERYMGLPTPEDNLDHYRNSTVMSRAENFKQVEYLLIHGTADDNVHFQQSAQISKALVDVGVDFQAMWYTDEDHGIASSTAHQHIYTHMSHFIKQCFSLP

Q: How did the “selectivity for inhibition of DPP-IV over the other amino dipeptidyl peptidases” value turn out when `O=C(CN[C@@H]1CCNC1)N1CCC[C@H]1B(O)O` [compound of formula (I), dutogliptin] was run?
A: maintained selectivity for inhibition of DPP-IV over the other amino dipeptidyl peptidases
